Tests used:
[1] = system: single-stranded vector containing a single KP1212; experiment: in vitro and in vivo replication of a single-stranded vector containing a single KP1212
Text: Mutagenic nucleoside analogs may act through lethal mutagenesis. Lethal mutagenesis is a strategy whereby the innate immune system or mutagenic pool nucleotides increase the error rate of viral replication above the error catastrophe limit. Lethal mutagenesis can also increase the mutation rate of the DNA and/or RNA of cancer cells (e.g., cancer cells with a mutator phenotype) to over the error catastrophe limit and thus show genotoxicity and/or mitochondrial toxicity against the cancer cells. Lethal mutagenesis is proposed as a mechanism for several anti-viral compounds, including Ribavirin, which is useful for treating RS virus infection (RSV) and KP1212, a dihydro base which causes A to G and G to A mutations in HIV. […] The mutagenic properties of KP1212 were determined empirically by in vitro and in vivo replication of a single-stranded vector containing a single KP1212. […] A model is proposed that correlates the mutagenicity of KP1212 with its tautomeric distribution in solution. When incorporated into HIV DNA by RT, KP1212 allows DNA synthesis to continue. However, the modified base of KP1212 is able to tautomerize and base-pair alternately with guanine and adenine. […] Variable temperature (VT) nuclear magnetic resonance (NMR) techniques have allowed the identification of compounds capable of multiple tautomerism.

HIV = conditions: Phase I and II; active form of the pro-drug KP1461; cited from earlier work
[2] = system: M13 single-stranded genomes, containing one KP1212 base at a specific site; experiment: primer extension at various pHs on M13 genome containing KP1212, PCR and REAP assay (mutagenesis); assay type: biochemical
Experimental: The method of evaluating the mutagenicity of a compound allows for analyzing the product of a primer extension reaction (by itself a trivial reaction, even if run at different pHs) with the REAP method (this method was published in Delaney, J. C. & Essigmann, J. M., Methods Enzymol. 408, 1-15 (2006)). The methods involve a custom primer, of the form 5′-B-A-3′ and the following protocol. The A sequence is the actual primer for the extension reaction, and by itself has a low (about 37° C.) melting temperature. […] Its melting temperature is high, at about 70° C. The template of the primer extension reaction is an M13 genome containing at a specific site a modified base (or nucleoside analog). After the primer extension reaction, a PCR reaction is run using two primers; primer 1 is the forward primer used in the REAP method (or a primer annealing on the M13 genome upstream of the lesion site); primer 2 is exactly the sequence B. This method guarantees that only the primer extension product will be PCR amplified, and amplification will not depend on the yield of the primer extension reaction. Therefore, this method allows to detect and analyze mutagenic consequences (including rare events) of nucleoside analogs in a variety of conditions, where the type of polymerase, pH, ionic strength, salt concentration, and inhibitors can be varied over a large range of possibilities.
The M13 single-stranded genomes, containing one KP1212 base at a specific site were constructed and purified as previously reported (Li, Fedeles, Singh, Peng et al, 2014, Tautomerism provides a molecular explanation for the mutagenic properties of the anti-HIV nucleoside 5-aza-5,6-dihydro-2′-deoxycytidine, Proc. Natl. Acad. Sci. U.S.A. 111, E3252-3259). […]
The PCR products were subsequently purified and analyzed with the REAP assay as previously described (Li, Fedeles, Singh, Peng et al, 2014, Tautomerism provides a molecular explanation for the mutagenic properties of the anti-HIV nucleoside 5-aza-5,6-dihydro-2′-deoxycytidine. Proc. Natl. Acad. Sci. U.S.A. 111, E3252-3259). […]

[3] = pH-dependent 1D FTIR / 2D IR spectroscopy of KP1212 in aqueous solutions (pKa); assay type: physicochemical; conditions: aqueous (D2O) solutions, pH* varied from 1.6 to 13.9; 1D and/or 2D IR spectroscopy, 25° C.
Experimental: FIGS. 1A to 1E. FIG. 1A: pH-dependent (Fourier transform infrared) FTIR spectra of KP1212 from pH* 1.6 (red or thin solid line) to 13.9 (blue or thick solid line) at 25° C. FIG. 1B: populations of protonated, neutral, and deprotonated KP1212 as a function of pH* obtained from the first three components of singular value decomposition (SVD) analysis. The solid lines show fits of the Henderson-Hasselbalch equation with pKa1 and pKa2. FIGS. 1C to 1E: SVD reconstructed IR spectra representative for the protonated (FIG. 1C), neutral (FIG. 1D), and deprotonated (FIG. 1E) KP1212. The grey curves, labeled A, in FIG. 1C and FIG. 1D are the experimental FTIR spectra of 1-(1′,4′-cyclohexadienyl)-2-methylaminopropane (CMP) at pH* 1.6 and 7.4, respectively. The pH* is the pH measured in D2O, as measured with a pH meter. The FTIR experiments were run in D2O.
An in vitro assay has been developed that allowed the measurement of the mutation type and rate of KP1212 at different pH values, and the mutagenic properties of KP1212 have been evaluated at pH 6-8. […] By simply changing the pH of a composition (e.g., a bodily fluid or aqueous solution) containing KP1212 to 5.9, KP1212 achieves its optimal mutagenicity of about 50%.
For both 1D FTIR and 2D IR experiments, the H/D exchanged KP1212 was dissolved at a concentration of 20 mg/ml (88 mM) in 0.5 M phosphate buffer pD (pH reading in D2O) 7.9. […]

With `NC1=NC(=O)N([C@H]2C[C@H](O)[C@@H](CO)O2)CN1` [KP1212, 5-aza-5,6-dihydro-2′-deoxycytidine] the mutagenicity [1] was 10%, the C-to-T mutations ([1]; in vivo, when present in a template strand) was “about 10%” and the “paired with adenine, share of the time” value ([1]; under physiological conditions) was “about 10%”. For the same molecule, the “paired with guanine, share of the time” value ([1]; under physiological conditions) was “approximately 90%”, the “safety in clinical trials” value (HIV) was “safe” and the mutagenesis ([2]; at pH 5.9) was “about 50%”. For the same molecule, the mutagenesis ([2]; at pH 8) was “about 10%”, the “C-to-T mutations in dependence on pH” value ([2]; pH 5.5-8.5) was “more C-to-T mutations as the pH decreases” and the pKa [3] was ~7.

Reference: US9714265B2, “Mutagenic nucleoside analogs and uses thereof” (Massachusetts Institute of Technology, priority 2015, dated 2017)
